Earlier results on one molecule are cited in US20250339484A1, “COMPOSITION FOR BODY FAT REDUCTION CONTAINING EXTRACTS OF TARAXACUM PLATYCARPUM AND LONICERAE JAPONICA AS ACTIVE INGREDIENTS” (BOINBIO-CONVERGENCE CO., LTD., priority 2022, published 2025).

The conditions of the data set: clinical trials, about 3 g per day, after 3 months.

Structures are written as SMILES.

With `CCCC/C=C/C=C/C=C\CCCCCCCC(=O)O` [CLA, conjugated linolenic acid], the “body weight reduction (average)” value is given as 2.5 kg.
